The text below walks through data of ChEMBL document CHEMBL1126167, “Synthesis and evaluation of photoaffinity probes directed at lanosterol 14-demethylase (P-45014DM)” (Bioorg Med Chem Lett, 1992).

Series [1] deals with T1, Lanosterol 14-alpha demethylase (Homo sapiens, UniProt Q16850).
T1 sequence (Q16850 whole entry): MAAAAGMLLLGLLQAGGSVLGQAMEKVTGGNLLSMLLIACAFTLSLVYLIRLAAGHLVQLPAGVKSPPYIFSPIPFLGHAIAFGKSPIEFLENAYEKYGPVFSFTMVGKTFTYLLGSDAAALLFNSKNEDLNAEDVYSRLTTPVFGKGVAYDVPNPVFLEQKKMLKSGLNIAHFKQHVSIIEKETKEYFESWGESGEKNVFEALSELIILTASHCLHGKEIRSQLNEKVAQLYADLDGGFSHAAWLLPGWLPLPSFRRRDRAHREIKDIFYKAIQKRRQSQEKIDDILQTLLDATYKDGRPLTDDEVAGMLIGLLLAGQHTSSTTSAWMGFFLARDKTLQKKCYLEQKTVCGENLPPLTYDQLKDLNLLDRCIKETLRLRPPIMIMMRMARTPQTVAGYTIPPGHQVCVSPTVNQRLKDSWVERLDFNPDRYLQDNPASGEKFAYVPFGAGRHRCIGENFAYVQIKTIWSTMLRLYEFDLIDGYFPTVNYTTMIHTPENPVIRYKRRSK
As to the kind of experiment: Binding affinity for cytochrome P450 14DM. Set-up: species or system Saccharomyces cerevisiae.

A further series concerns P45014DM. As to the kind of experiment: Photolysis after effective incorporation into P45014DM at 313 nm in phosphate buffer. Conditions: compound incorporated into P45014DM. Further details: dose or concentration left out as unconfirmed. The format is ADME.
Series [2] can be described thus: Photolysis at 264 nm in phosphate buffer. It is filed as ADME. Set-up: dose or concentration left out as unconfirmed.
A short description of series [3]: Specific activity was determined. The format is functional. Conditions: tested as the 3H-labelled form.

Take `[N-]=[N+]=Nc1ccc(-n2ccnc2)cc1`: binding in series [1] was characterised by a dissociation constant (Kd) of 25 µM.

As for `[3H]C(O)(Cn1ccnc1)c1ccc(N=[N+]=[N-])cc1` (configuration not stated), the half-life was 45 min in the series with P45014DM and 2.5 min in series [2].

In series [1], `[N-]=[N+]=Nc1ccc(C(O)Cn2ccnc2)cc1` (configuration not stated) came in with a Kd of 1.4 µM. Also, the Activity in series [3] is 26.4 mCi/M.

As to `[N-]=[N+]=Nc1ccc(Cn2ccnc2)cc1`, the Kd in series [1] came out at 15 µM.

Compound `[N-]=[N+]=Nc1ccc(C(=O)Cn2ccnc2)cc1` registered a Kd in series [1] of 18 µM.

For orientation: Kd means the constant that tells how readily two partners part at equilibrium. The half-life is the time in which the quantity being followed falls by half.
